From ChEMBL document CHEMBL4811292, “Discovery of novel β-turn mimetic-based peptides as novel quorum sensing inhibitors of gram-negative bacteria” (Bioorg Med Chem Lett, 2021)
pIC50: −log10 of the molar value. Converted amounts (≈) assume the structure as drawn. The source made the active and inactive calls. The calls are words filed in the database; no cut-off is given here.

Columns and labels:
[1] = test system: Staphylococcus epidermidis; assay: Inhibition of quorum sensing system in Staphylococcus epidermidis
[2] = test system: Pseudomonas aeruginosa; assay: Antibacterial activity against Pseudomonas aeruginosa assessed as inhibition of cell growth; type: functional
[3] = Inhibition of quorum sensing system in Chromobacterium violaceum ATCC 31532 assessed as reduction in violacein production at <100 uM; conditions: dose microM <100
[4] = Inhibition of quorum sensing system lasB in Pseudomonas aeruginosa transfected with lasB-gfp assessed as reduction of GFP production; conditions: for pIC50: read-out: IC50
[5] = Inhibition of quorum sensing system in Chromobacterium violaceum ATCC 31532 assessed as reduction in violacein production at 100 uM
[6] = test system: Pseudomonas aeruginosa; assay: Potency index, ratio of 4NPO IC50 to test compound IC50 for inhibition of quorum sensing system lasB in Pseudomonas aeruginosa transfected with lasB-gfp
[7] = test system: Pseudomonas aeruginosa; assay: Inhibition of quorum sensing system lasB in Pseudomonas aeruginosa transfected with lasB-gfp assessed as reduction of GFP production at 10 to 15 uM; conditions: dose 10-15 µM
[8] = test system: Pseudomonas aeruginosa; assay: Antibiofilm activity against Pseudomonas aeruginosa PA14 assessed as inhibition of biofilm formation at 50 uM measured after 48 hrs relative to control; type: functional
[9] = test system: Pseudomonas aeruginosa; assay: Antibiofilm activity against Pseudomonas aeruginosa PA14 assessed as inhibition of biofilm formation at 15 to 50 uM measured after 48 hrs; type: functional, organism-based; conditions: dose 15-50 µM
[10] = test system: Pseudomonas aeruginosa; assay: Antibiofilm activity against Pseudomonas aeruginosa PA14 assessed as inhibition of biofilm formation at 15 to 50 uM measured after 48 hrs relative to control; type: functional; conditions: dose 15-50 µM
[11] = test system: Pseudomonas aeruginosa; assay: Inhibition of quorum sensing system lasB in Pseudomonas aeruginosa transfected with lasB-gfp assessed as reduction of GFP production at 10 uM
[12] = test system: Pseudomonas aeruginosa; assay: Inhibition of quorum sensing system lasB in Pseudomonas aeruginosa transfected with lasB-gfp assessed as reduction of GFP production at 5 uM

## CCCCN1C[C@H]2N(C(=O)CN(c3ccc(C)cc3)N2C(=O)NCc2ccccc2)[C@@H](C(C)C)C1=O
[1]
  inhibition: inactive
[2]
  MIC: > 150 µM
[3]
  inhibition: inactive
[4]
  IC50: Not Active
[5]
  inhibition: 21%

## CCCCN1C[C@H]2N(C(=O)CN(c3ccc(C)cc3)N2C(=O)NCc2ccccc2)[C@@H](Cc2ccc(Cl)cc2)C1=O
[1]
  inhibition: inactive
[2]
  MIC: 100 µM (≈ 57.4 µg/mL)
[3]
  inhibition: inactive
[4]
  IC50: Not Active
[5]
  inhibition: 12%

## Cc1ccc(N2CC(=O)N3[C@@H](CC(C)C)C(=O)N(Cc4ccco4)C[C@@H]3N2C(=O)NCc2ccccc2)cc1
[6]
  Ratio IC50: 2
[1]
  inhibition: inactive
[2]
  MIC: > 150 µM
[3]
  inhibition: inactive
[7]
  inhibition: Active
[8]
  inhibition at 50 µM: 80%
[4]
  pIC50: 4.92
[5]
  inhibition: 52%

## O=[N+]([O-])c1cc[n+]([O-])cc1
[9]
  inhibition: Active
[4]
  pIC50: 4.57
[5]
  inhibition: 66%

## C=CCNC(=O)N1[C@H]2CN(Cc3ccccc3)C(=O)[C@H](C(C)CC)N2C(=O)CN1c1ccc(C)cc1 (some centres not stated)
[6]
  Ratio IC50: 2
[1]
  inhibition: inactive
[2]
  MIC: > 100 µM
[10]
  inhibition (INH): 20%
[3]
  inhibition: inactive
[11]
  inhibition: Active
[4]
  pIC50: 5.15
[5]
  inhibition: 49%

## C=CCNC(=O)N1[C@H]2CN(Cc3ccccc3)C(=O)[C@H](Cc3ccccc3)N2C(=O)CN1c1ccc(C)cc1
[6]
  Ratio IC50: 2
[1]
  inhibition: inactive
[2]
  MIC: > 100 µM
[10]
  inhibition (INH): 80%
[12]
  inhibition: Active
[3]
  inhibition: inactive
[4]
  pIC50: 5.40
[5]
  inhibition: 62%
